Data published in ChEMBL document CHEMBL1201862, “PubChem BioAssay data set” (2004).
Active and inactive are the calls of the source. Rule as the data show it, for most assays here: actives have a measured EC50 and inactives only a lower limit.

What was measured:
[1] = Luminescence Cell-Based Dose Response HTS to Identify Activators of Luciferase Translation or Activity in H4 […] Cells. [Related pubchem assays: 1829 (Project Summary), 1814 (Primary HTS)]; format: functional
[2] = Luminescence Cell-Based Dose Confirmation HTS to Identify Activators of 5'UTR Stem-Loop Driven Alpha-Synuclein mRNA Translation in H4 Neuroglioblastoma Cells. [Related pubchem assays: 1829 (Project Summary), 1814 (Primary HTS)]; format: functional
H4 = assay: Luminescence Cell-Based Dose Response HTS to Identify Activators of 5'UTR Stem-Loop Driven Prion Protein mRNA Translation in H4 Neuroglioblastoma Cells. [Related pubchem assays: 1829 (Project Summary), 1814 (Primary HTS)]; format: functional; conditions: Homo sapiens
[3] = biological target: FAD-linked sulfhydryl oxidase ALR (Homo sapiens, UniProt P55789); assay: inhibitors of human ALR sulfhydryl oxidase, dose response, biochemical, H2O2 detection, luminescence, cherry-pick (AID 493248)
Sequence of FAD-linked sulfhydryl oxidase ALR (P55789 whole entry): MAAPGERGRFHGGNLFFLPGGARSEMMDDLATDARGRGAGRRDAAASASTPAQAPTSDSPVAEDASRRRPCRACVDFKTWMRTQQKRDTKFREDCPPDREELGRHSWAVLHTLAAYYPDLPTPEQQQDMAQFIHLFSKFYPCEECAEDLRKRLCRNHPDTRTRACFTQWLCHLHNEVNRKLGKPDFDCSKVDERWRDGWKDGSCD

[4] = biological target: T1, Corticotropin-releasing factor receptor 2/Corticotropin-releasing factor-binding protein (Homo sapiens, UniProt P24387+Q13324); assay: activators of CRF receptor 2 with binding protein – uHTS hits, confirmation (AID 602473); format: functional; conditions: read-out: EC50_Mean
T1 sequence (Q13324 whole entry): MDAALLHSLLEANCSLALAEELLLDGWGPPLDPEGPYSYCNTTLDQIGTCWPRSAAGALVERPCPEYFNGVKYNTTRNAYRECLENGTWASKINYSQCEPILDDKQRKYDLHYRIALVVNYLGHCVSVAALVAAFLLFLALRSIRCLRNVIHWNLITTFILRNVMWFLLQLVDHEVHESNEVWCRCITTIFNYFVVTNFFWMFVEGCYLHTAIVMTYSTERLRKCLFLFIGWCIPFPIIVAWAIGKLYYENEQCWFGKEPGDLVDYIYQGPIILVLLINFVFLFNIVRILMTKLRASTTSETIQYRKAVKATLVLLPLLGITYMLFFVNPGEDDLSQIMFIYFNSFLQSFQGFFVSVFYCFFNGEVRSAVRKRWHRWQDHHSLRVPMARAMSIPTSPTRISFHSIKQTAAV
T1 sequence (P24387 whole entry): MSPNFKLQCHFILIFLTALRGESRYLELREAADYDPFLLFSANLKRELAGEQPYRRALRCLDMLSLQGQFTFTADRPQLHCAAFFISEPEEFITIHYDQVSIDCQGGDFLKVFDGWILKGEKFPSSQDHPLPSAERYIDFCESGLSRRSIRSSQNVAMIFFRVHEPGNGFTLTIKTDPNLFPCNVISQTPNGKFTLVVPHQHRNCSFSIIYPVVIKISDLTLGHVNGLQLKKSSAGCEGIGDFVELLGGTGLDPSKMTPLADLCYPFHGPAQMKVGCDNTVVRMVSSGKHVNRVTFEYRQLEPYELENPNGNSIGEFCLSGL

[5] = biological target: T1, Corticotropin-releasing factor receptor 2/Corticotropin-releasing factor-binding protein; assay: Dose Response confirmation of uHTS hits for small molecule antagonists of the CRF-binding protein and CRF-R2 receptor complex.; format: functional; conditions: read-out: IC50_Mean
[6] = tested on: Streptococcus sp. 'group A'; assay: growth inhibition of control SK(-) GAS strain, dose response, counter-screen for streptokinase expression inhibitor project, luminescence, kanamycin, BacTiterGlo, confirmation (AID 1900); format: functional, organism-based
Streptococcus = assay: Group A Streptococcus viability loss, dose response, counter-screen for streptokinase expression inhibitor project, luminescence, BacTiterGlo (AID 1915); format: functional, organism-based;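 also: potency for reduction of bacterial viability or growth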
Streptokinase A = biological target: T2, Streptokinase A (Streptococcus pyogenes serotype M1, UniProt P10520); assay: S. pyogenes streptokinase expression inhibitors, potency, dose response, plasminogen activation absorbance, OD405 (AID 1914); format: functional, Streptococcus pyogenes M1 GAS;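 also: secreted streptokinase activity via plasminogen activation per viability signal from cell pellet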
T2 sequence (P10520 whole entry): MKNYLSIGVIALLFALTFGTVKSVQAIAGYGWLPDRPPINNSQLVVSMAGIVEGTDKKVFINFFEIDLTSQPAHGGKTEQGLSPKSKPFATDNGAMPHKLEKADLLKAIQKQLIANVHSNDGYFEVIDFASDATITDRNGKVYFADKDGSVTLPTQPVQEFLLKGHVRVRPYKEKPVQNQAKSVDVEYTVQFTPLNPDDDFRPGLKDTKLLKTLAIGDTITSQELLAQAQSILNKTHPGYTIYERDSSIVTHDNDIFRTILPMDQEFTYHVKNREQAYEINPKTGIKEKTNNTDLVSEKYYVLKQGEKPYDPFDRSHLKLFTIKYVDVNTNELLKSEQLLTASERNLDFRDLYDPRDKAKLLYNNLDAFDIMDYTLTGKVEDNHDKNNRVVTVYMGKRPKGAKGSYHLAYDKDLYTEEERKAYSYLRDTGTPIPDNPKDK

cells = format: functional
[7] = C. albicans growth with fluconazole, confirmation, fluorescence, retest (AID 2467); format: functional, cell-based
[8] = NIH-3T3 fibroblast cytotoxicity, dose response, cytotoxicity control, cell-based, fluorescence, Alamar Blue, secondary assay (AID 2327); format: functional;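 also: NIH-3T3 mouse fibroblasts cultured with fluconazole at 8 µg/mL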
[9] = Luminescence Cell-Based Dose Retest to Confirm Inhibitors of Cancer Stem Cells. [Related pubchem assays (depositor defined):AID2717, AID2721]; format: functional; conditions: Homo sapiens
[10] = inhibitors of intracellular T. cruzi replication, confirmation, NIH3T3 host cells, beta-gal luminescence (AID 2044); format: functional, cell-based;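 also: intracellular parasites grown in NIH/3T3 mouse fibroblasts as host cells; luminescent beta-galactosidase reporter signal from transgenic T. cruzi replicating inside host cells; inhibitors lower the luminescence signal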
[11] = cytotoxicity toward NIH3T3 fibroblasts, dose response, counter-screen, cell-based, ATP luminescence, mouse fibroblasts (AID 2010); format: functional;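 also: cells exposed to compound for about 90 hours before reading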

## O=C(c1ccccc1)N1CCN(c2ncnc3c(-c4ccccc4)nsc23)CC1
[1]
  EC50: > 120 µM (not active)
[2]
  EC50: 33.1 µM (active)
H4
  EC50: 17 µM (active)

## CCc1noc(C)c1C(=O)Nc1cc(Cl)ccc1N1CCCC1
[3]
  AC50: 1.15 µM (active)

## CCOC(=O)c1ccc(Nc2ncccc2[N+](=O)[O-])cc1
[1]
  EC50: 1.82 µM (active)
[2]
  EC50: 0.12 µM (active)
H4
  EC50: 0.801 µM (active)

## CC1(C)Cc2c(sc3[nH]c(=O)n(CC(=O)NCC4CCCO4)c(=O)c23)CO1 (stereo not drawn)
[4]
  EC50: > 53 µM (inactive)
[5]
  IC50: > 47.1 µM (inactive)

## COc1ccccc1-c1c[nH]nc1-c1ccc(OCc2ccc(F)cc2)cc1O
[6]
  EC50: 7.62 µM (active)
Streptococcus
  EC50: 24.5 µM (active)
Streptokinase A
  EC50: 76.6 µM (active)

## CCOc1ccc(C(=O)Nc2nnc(C3=COCCO3)o2)cc1
cells
  IC50: 3.65 µM (active)

## Nc1nn2cc(-c3ccc(Br)cc3)nc2c2ccccc12
[1]
  EC50: 0.177 µM (active)
[7]
  EC50: 1.24 µM (active)
H4
  EC50: 2.38 µM (active)
[8]
  EC50: 109 µM (active)

## O=C(CCCc1c[nH]c2ccccc12)N1CCCCCC1
[1]
  EC50: 7.67 µM (active)
[2]
  EC50: 8.16 µM (active)
H4
  EC50: 34.2 µM (active)

## O=C(Nc1ccc(-c2csc(Nc3ccc(Cl)cc3)n2)cc1)c1cc([N+](=O)[O-])cc(C(F)(F)F)c1
[6]
  EC50: 8.5 µM (active)
Streptococcus
  EC50: 7.28 µM (active)
Streptokinase A
  EC50: > 150 µM (not active)
[9]
  AC50: 1.32 µM (active)

## COc1cccc(NC(=O)C(=O)N2CCOCC2)c1
[1]
  EC50: 78.3 µM (active)
[2]
  EC50: 4.35 µM (active)
H4
  EC50: 24.3 µM (active)

## Cc1ccc(NC(NC(=O)c2ccccn2)C(Cl)(Cl)Cl)cc1 (stereo not drawn)
[3]
  AC50: 0.731 µM (active)

## COc1ccc(/C=C/C(=O)NC(=S)NNC(=O)c2cc(OC)c(OC)c(OC)c2)cc1OC
[6]
  EC50: 3.3 µM (active)
Streptococcus
  EC50: 17.8 µM (active)
Streptokinase A
  EC50: > 150 µM (not active)

## COc1ccc(CN(CCc2c[nH]c3ccccc23)Cc2ccc(OC)cc2)cc1
[4]
  EC50: > 53 µM (inactive)
[5]
  IC50: > 47.1 µM (inactive)

## O=C1CCC(C(=O)Nc2ccccc2N2CCOCC2)=NN1
[4]
  EC50: > 53 µM (inactive)
[5]
  IC50: > 47.1 µM (inactive)

## CCOC(=O)N1CCN(C(=O)Cn2cnc3ccccc3c2=O)CC1
[4]
  EC50: > 53 µM (inactive)
[5]
  IC50: > 47.1 µM (inactive)

## COC(=O)/C=c1/s/c(=C(\C#N)C(=O)NCc2ccco2)n(-c2ccccc2)c1=O
[4]
  EC50: > 53 µM (inactive)
[5]
  IC50: > 47.1 µM (inactive)

## CCN(CC)c1ccc(/C=N\NC(=O)c2cccc3cc[nH]c23)cc1
[4]
  EC50: > 53 µM (inactive)
[5]
  IC50: > 47.1 µM (inactive)

## CCNc1nc(NCC)nc(N/N=C/c2ccc(N(C)C)cc2)n1
[3]
  AC50: 2.33 µM (active)

## Cc1ccc(-c2nn(-c3ccccc3)cc2/C=C2\SC(=S)N(CCCCCC(=O)O)C2=O)o1
[1]
  EC50: 16 µM (active)
[2]
  EC50: 12.6 µM (active)
H4
  EC50: 13.9 µM (active)

## O=C(CCN1CCOCC1)c1ccc(Cl)cc1
cells
  IC50: 22.5 µM (active)
[10]
  EC50: 1.74 µM (active)
[11]
  EC50: > 60 µM (not active)

## COc1ccc(NC(=O)c2cc3cccc(OC)c3o/c2=N\c2ccc(C(=O)O)cc2)cc1OC
[6]
  EC50: 2.38 µM (active)
Streptococcus
  EC50: 20.2 µM (active)
Streptokinase A
  EC50: > 150 µM (not active)

## COc1ccc(/C=N/NC(=O)c2cc[nH]n2)cc1CSc1ccccn1
[3]
  AC50: 0.68 µM (active)

## O=C(N/N=C/c1cccc(O)c1)N/N=C/c1cccc(O)c1
[3]
  AC50: 0.797 µM (active)
